Experimental data published in patent publication US8586755B2, “Substituted nicotinamides as KCNQ2/3 modulators” (Grünenthal GmbH, priority 2009, dated 2013).

Target: T1, KCNQ2/3 channels (Homo sapiens, UniProt O43525+O43526)
T1 construct: expressed in transfected cells
Experiment: Fluorescence assay using a voltage sensitive dye (fluorimetry)
Format: cell-based
Settings: CHO-K1 cells expressing KCNQ2/3 channels; for EC50: agonistic activity; for Emax / Fluorimetry % efficacy (retigabine 50 μM = 100%): retigabine 50 μM = 100%; for Emax: read-out: Fluorimetry % efficacy (retigabine 50 μM = 100%)
How it was run: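 CHO-K1 cells expressing human KCNQ2/3, loaded 45 min with red membrane-potential dye in ES buffer pH 7.4 (1 mM KCl), compound 30 min at room temperature. Fluorescence (525/560 nm) read before (F1) and at peak after KCl to 92 mM final (F2); agonism from F2/F1 change, EC50 fitted.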

Structure (SMILES) | EC50 [nM] | Emax [%] | Fluorimetry % efficacy (retigabine 50 μM = 100%) [%]
O=C(NCCCc1cccnc1)c1cccnc1SCCCc1ccc(F)cc1 [compound 94, 2-[3-(4-Fluorophenyl)-propylsulfanyl]-N-(3-pyridine-3-yl-propyl)-pyridine-3-carboxylic acid amide] | 2210 | 181 | 
O=C(NCCCc1ccncc1)c1cccnc1SCCCc1ccc(F)cc1 [compound 95, 2-[3-(4-Fluorophenyl)-propylsulfanyl]-N-(3-pyridine-4-yl-propyl)-pyridine-3-carboxylic acid amide] | 2060 | 147 | 
CCCNC(=O)c1cccnc1SCCCc1ccc(F)cc1 [compound 96, 2-[3-(4-Fluorophenyl)-propylsulfanyl]-N-propyl-pyridine-3-carboxylic acid amide] | 660 | 194 | 
CCCCNC(=O)c1cccnc1SCCCc1ccc(F)cc1 [compound 97, N-Butyl-2-[3-(4-fluorophenyl)-propylsulfanyl]-pyridine-3-carboxylic acid amide] | 134 | 196 | 
O=C(NCc1cccs1)c1cccnc1SCCCc1ccc2ccccc2c1 [compound 102, 2-(3-Naphthalen-2-yl-propylsulfanyl)-N-(thiophen-2-yl-methyl)-pyridine-3-carboxylic acid amide] | 456 | 111 | 
Cc1cccc(CCCSc2ncccc2C(=O)NCc2cccs2)c1 [compound 103, 2-[3-(m-Tolyl)-propylsulfanyl]-N-(thiophen-2-yl-methyl)-pyridine-3-carboxylic acid amide] | 111 | 129 | 
Cc1cc(CCCSc2ncccc2C(=O)NCc2cccs2)cc(C(F)(F)F)c1 [compound 109, 2-[3-[3-Methyl-5-(trifluoromethyl)-phenyl]-propylsulfanyl]-N-(thiophen-2-yl-methyl)-pyridine-3-carboxylic acid amide] | 180 | 129 | 
O=C(NCc1cccs1)c1cccnc1SC1CCCC(c2ccccc2)C1 (stereo not shown) [compound 114, 2-[(3-Phenyl-cyclohexyl)sulfanyl]-N-(thiophen-2-yl-methyl)-pyridine-3-carboxylic acid amide] | 553 | 128 | 
O=C(NCC1CC2CCC1C2)c1cccnc1SCCC(F)(F)c1ccc(F)cc1 (stereo not shown) [compound 115] | 42 |  | 213
O=C(NCC1CCCCCC1)c1cccnc1SCCC(F)(F)c1ccc(F)cc1 [compound 117, N-(Cycloheptyl-methyl)-2-[[3,3-difluoro-3-(4-fluorophenyl)-propyl]sulfanyl]-pyridine-3-carboxylic acid amide] | 35 | 160 | 
O=C(NCc1cccs1)c1cccnc1SCCC(F)(F)c1ccc(F)cc1 [compound 118, 2-[[3,3-Difluoro-3-(4-fluorophenyl)-propyl]sulfanyl]-N-(thiophen-2-yl-methyl)-pyridine-3-carboxylic acid amide] | 37 | 159 | 
O=C(NCC1CCc2ccccc2C1)c1cccnc1SCCCc1ccc(F)cc1 (stereo not shown) [compound 119, 2-[3-(4-Fluorophenyl)-propylsulfanyl]-N-(1,2,3,4-tetrahydro-naphthalen-2-yl-methyl)-pyridine-3-carboxylic acid amide] |  | 30 | 
CC(C)(C)C(=O)CNC(=O)c1cccnc1SCCCc1ccc(F)cc1 [compound 125, N-(3,3-Dimethyl-2-oxo-butyl)-2-[3-(4-fluorophenyl)-propylsulfanyl]-pyridine-3-carboxylic acid amide] | 1400 | 99 | 
O=C(NCc1ccncc1)c1cccnc1SCCCc1ccc(F)cc1 [compound 128, 2-[3-(4-Fluorophenyl)-propylsulfanyl]-N-(pyridin-4-yl-methyl)-pyridine-3-carboxylic acid amide] | 1850 | 122 | 
COC(=O)c1cccc(CNC(=O)c2cccnc2SCCCc2ccc(F)cc2)c1 [compound 129, 3-[[[2-[3-(4-Fluorophenyl)-propylsulfanyl]-pyridine-3-carbonyl]amino]-methyl]-benzoic acid methyl ester] | 325 | 122 | 
COc1ccccc1CCCNC(=O)c1cccnc1SCCCc1ccc(F)cc1 [compound 130, 2-[3-(4-Fluorophenyl)-propylsulfanyl]-N-[3-(2-methoxyphenyl)-propyl]-pyridine-3-carboxylic acid amide] | 465 | 164 | 

Further lines, results first:

EC50 [nM] | Emax [%] | Fluorimetry % efficacy (retigabine 50 μM = 100%) [%] | Structure (SMILES)
 | 29 |  | O=C(NCc1cccs1)c1cccnc1SCCCc1cccnc1 [compound 98, 2-(3-Pyridin-3-yl-propylsulfanyl)-N-(thiophen-2-yl-methyl)-pyridine-3-carboxylic acid amide]
178 | 70 |  | Cc1ccc(CCCSc2ncccc2C(=O)NCc2cccs2)cc1 [compound 99, 2-[3-(p-Tolyl)-propylsulfanyl]-N-(thiophen-2-yl-methyl)-pyridine-3-carboxylic acid amide]
1590 | 48 |  | O=C(NCc1cccs1)c1cccnc1SCCCCc1ccccc1 [compound 100, 2-(4-Phenyl-butylsulfanyl)-N-(thiophen-2-yl-methyl)-pyridine-3-carboxylic acid amide]
 | 38 |  | O=C(NCc1cccs1)c1cccnc1SCCCc1ccncc1 [compound 101, 2-(3-Pyridin-4-yl-propylsulfanyl)-N-(thiophen-2-yl-methyl)-pyridine-3-carboxylic acid amide]
361 | 87 |  | O=C(NCc1cccs1)c1cccnc1SCCCc1cccs1 [compound 104, N-(Thiophen-2-yl-methyl)-2-(3-thiophen-2-yl-propylsulfanyl)-pyridine-3-carboxylic acid amide]
479 | 166 |  | CC(CCc1ccccc1)Sc1ncccc1C(=O)NCc1cccs1 (stereo not shown) [compound 105, 2-[(1-Methyl-3-phenyl-propyl)sulfanyl]-N-(thiophen-2-yl-methyl)-pyridine-3-carboxylic acid amide]
191 | 95 |  | O=C(NCc1cccs1)c1cccnc1SCCCc1ccsc1 [compound 106, N-(Thiophen-2-yl-methyl)-2-(3-thiophen-3-yl-propylsulfanyl)-pyridine-3-carboxylic acid amide]
165 | 143 |  | O=C(NCc1cccs1)c1cccnc1SC1CCCCC1Cc1ccccc1 (stereo not shown) [compound 108, 2-[(2-Benzyl-cyclohexyl)sulfanyl]-N-(thiophen-2-yl-methyl)-pyridine-3-carboxylic acid amide]
462 | 110 |  | O=C(NCc1cccs1)c1cccnc1SCCCCc1ccc(F)c(F)c1 [compound 110, 2-[4-(3,4-Difluoro-phenyl)-butylsulfanyl]-N-(thiophen-2-yl-methyl)-pyridine-3-carboxylic acid amide]
11100 | 61 |  | O=C(NCc1cccs1)c1cccnc1SCCCc1ccccn1 [compound 111, 2-(3-Pyridin-2-yl-propylsulfanyl)-N-(thiophen-2-yl-methyl)-pyridine-3-carboxylic acid amide]
494 |  | 104 | O=C(NCc1cccs1)c1ccc(N2CCCC2)nc1SCCCc1ccccc1 [compound 112]
5200 | 90 |  | Cc1ccc(CCCSc2ncccc2C(=O)NCc2cccs2)cc1C(F)(F)F [compound 113, 2-[3-[4-Methyl-3-(trifluoromethyl)-phenyl]-propylsulfanyl]-N-(thiophen-2-yl-methyl)-pyridine-3-carboxylic acid amide]
307 | 61 |  | O=C(NCC1Cc2ccccc2C1)c1cccnc1SCCCc1ccc(F)cc1 [compound 120, N-(2,3-Dihydro-1H-inden-2-yl-methyl)-2-[3-(4-fluorophenyl)-propylsulfanyl]-pyridine-3-carboxylic acid amide]
256 | 99 |  | O=C(NCc1ccc2c(c1)OCO2)c1cccnc1SCCCc1ccc(F)cc1 [compound 121, N-(1,3-Benzodioxol-5-yl-methyl)-2-[3-(4-fluorophenyl)-propylsulfanyl]-pyridine-3-carboxylic acid amide]
153 | 94 |  | O=C(NCc1cccc(-c2ccccc2)c1)c1cccnc1SCCCc1ccc(F)cc1 [compound 122, 2-[3-(4-Fluorophenyl)-propylsulfanyl]-N-[(3-phenyl-phenyl)-methyl]-pyridine-3-carboxylic acid amide]
155 | 168 |  | CC1CCCC(CNC(=O)c2cccnc2SCCCc2ccc(F)cc2)C1 (stereo not shown) [compound 123, 2-[3-(4-Fluorophenyl)-propylsulfanyl]-N-[(3-methyl-cyclohexyl)-methyl]-pyridine-3-carboxylic acid amide]
627 |  | 177 | CC(C)(C)C(O)CNC(=O)c1cccnc1SCCCc1ccc(F)cc1 (stereo not shown) [compound 126]
1860 | 147 |  | O=C(NCc1cccnc1)c1cccnc1SCCCc1ccc(F)cc1 [compound 127, 2-[3-(4-Fluorophenyl)-propylsulfanyl]-N-(pyridin-3-yl-methyl)-pyridine-3-carboxylic acid amide]
 |  | 25 | O=C(O)c1cccc(CNC(=O)c2cccnc2SCCCc2ccc(F)cc2)c1 [compound 131]
82 | 120 |  | CC(CCc1cccc(C(F)(F)F)c1)Sc1ncccc1C(=O)NCc1ccc(F)cc1 (stereo not shown) [compound 132, N-[(4-Fluorophenyl)-methyl]-2-[[1-methyl-3-[3-(trifluoromethyl)phenyl]-propyl]sulfanyl]-pyridine-3-carboxylic acid amide]
3140 | 154 |  | O=C(NCCCn1cccn1)c1cccnc1SCCCc1ccc(F)cc1 [compound 135, 2-[3-(4-Fluorophenyl)-propylsulfanyl]-N-[3-(1H-pyrazol-1-yl)-propyl]-pyridine-3-carboxylic acid amide]
